Among the data in ChEMBL document CHEMBL5154935, “Design, Synthesis, and Biological Evaluation of Novel Evodiamine Derivatives as Potential Antihepatocellular Carcinoma Agents” (J Med Chem, 2022) are AUC(0-t), Activity and inhibition in vivo values, retold here.

The nature of series [1]: AUC (0 to t) in Sprague-Dawley rat at 80 mg/kg, ip measured upto 24 hrs by LC-MS analysis. The following applies: in vivo. The class given is ADME, organism-based. The arrangement: time < 24 hrs, dose 80 mg/kg, route ip.
Series [2] is described as follows: Toxicity in BALB/c mouse xenografted with human Huh-7 cells assessed as histopathological change in lung at 10 mg/kg, ip qd for 11 days and measured after 12 days by hematoxylin and eosin staining based assay. The class given is organism-based. As to conditions: in vivo, 288 h, time 12 day. (In general: In xenograft studies the graft and the host belong to different species.)

Series [3] in a line: Toxicity in BALB/c mouse xenografted with human Huh-7 cells assessed as reduction in platelet levels at 10 mg/kg, ip qd for 11 days and measured on day 11. The following applies: in vivo, 264 h, time 11 day. It counts as organism-based.
Series [4] in a line: Acute toxicity in Kunming mouse assessed as animal survival at 400 mg/kg, ip measured for 14 consecutive days. The class given is organism-based. The following applies: in vivo, 336 h, time 14 day.
The nature of series [5]: Toxicity in BALB/c mouse xenografted with human Huh-7 cells assessed as histopathological change in kidney at 10 mg/kg, ip qd for 11 days and measured after 12 days by hematoxylin and eosin staining based assay. It counts as organism-based. As to conditions: in vivo, 288 h, time 12 day.
Series [6] can be described thus: Toxicity in BALB/c mouse xenografted with human Huh-7 cells assessed as decrease in body weight at 10 mg/kg, ip qd for 11 days and measured every 2 days. As to conditions: in vivo, 264 h, time 11 day. It counts as organism-based.
Series [7] can be described thus: Acute toxicity in Kunming mouse assessed as frequency of defecation at 400 mg/kg, ip measured for 14 consecutive days. The following applies: in vivo, 336 h, time 14 day. The class given is organism-based.
A short description of series [8]: Toxicity in BALB/c mouse xenografted with human Huh-7 cells assessed as aplastic anemia at 10 mg/kg, ip qd for 11 days and measured on day 11. The following applies: in vivo, 264 h, time 11 day. It counts as organism-based.
Series [9] has as its system Huh-7. Briefly: Antitumor activity in human Huh-7 cells xenografted in BALB/c mouse assessed as decrease in Ki-67 positive cells at 10 mg/kg, ip qd for 11 days and measured on day 12 by immunohistochemistry staining based assay. As to conditions: time 12.0 day. It counts as functional, organism-based.
Series [10] relates to SK-HEP1. Nature of the series: Induction of mitochondrial membrane potential changes in human SK-Hep1 cells assessed as decrease in TMRE positive cells at 10 to 80 nM incubated for 24 hrs by TMRE staining based flow cytometry (reference value: 87.92 %). The class given is functional. On the set-up: scale not given: the % may be the effect or the level left. As to conditions: dose 10-80 nM.

Series [11] in a line: Toxicity in BALB/c mouse xenografted with human Huh-7 cells assessed as bone marrow suppression at 10 mg/kg, ip qd for 11 days and measured on day 11. It counts as organism-based. As to conditions: in vivo, 264 h, time 11 day.
The subject of series [12] is Huh-7. Briefly: Antitumor activity against human Huh-7 cells xenografted in BALB/c mouse assessed as tumor growth inhibition at 10 mg/kg, ip qd for 11 days and measured every 2 days relative to control. It counts as functional. The following applies: Huh-7, 264 h, time 11 day, read-out: TGI.
A short description of series [13]: Acute toxicity in Kunming mouse assessed as frequency of defecation at 100 mg/kg, ip measured for 14 consecutive days. The class given is organism-based. As to conditions: in vivo, 336 h, time 14 day.

Molecules are shown by their SMILES. Calls of active or inactive are those of the source. The rule behind the calls is not given here.

By AUC(0-t) is commonly meant the area under the concentration-time curve up to a stated or last time point. `CC(=O)Oc1ccc2[nH]c3c(c2c1)CCN1C(=O)c2cc(F)cc(F)c2N(c2cccc(F)c2)C31` (stereo not drawn) displayed an AUC(0-t) at 24 h in series [1] of 3070 ng·h/mL. In addition, the Activity result in series [2], in [3], in [4], in series [5], in series [6] and in [7] was “Non-Toxic” in each case. Besides, the Activity result in series [8] is listed as “Non-Toxic”; in series [10], 65.21%; in series [11], “Non-Toxic”. Further, the result in series [9] was Active. Also, the inhibition in vivo at 10 mg/kg in series [12] was determined as 60.4%.
Turning to `O=C1c2cc(F)cc(F)c2N(c2cccc(F)c2)C2c3[nH]c4ccc(O)cc4c3CCN12` (stereo not drawn), the Activity result in series [13] is “Non-Toxic”.
